Experiments:
[1] = Microsomal stability (rat); format: in vitro ADME; conditions: rat microsomes
[2] = biological target: mTOR (Homo sapiens, UniProt P42345); experiment: mTOR activity (no method described); format: biochemical
[3] = tested on: Asexual parasites of P. falciparum strain 3D7; experiment: In vitro drug activity on asexual parasites (SYBR Green assay); format: cell-based, Plasmodium falciparum
In short: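 3D7 parasites at 0.5% parasitemia and 2% hematocrit were exposed to drugs (DMSO ≤0.5%) for 72 h under standard culture conditions, in duplicate. After freeze-thaw lysis, SYBR Green I lysis buffer was added for 30 min at room temperature, and fluorescence was read at 490/520 nm.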

[4] = PAMPA permeability; format: in vitro ADME
[5] = tested on: Stage III-V gametocytes (blood stage P. falciparum parasites); experiment: In vitro drug activity on gametocytes (AlamarBlue viability assay); format: cell-based, Plasmodium falciparum; conditions: read-out: Gametocyte EC50
In short: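 P. falciparum 3D7 stage III–V gametocytes (also HB3, Dd2), enriched by 50 mM N-acetylglucosamine and Percoll gradient, seeded at 20,000/well with compound for 72 h at 37° C, 5% CO2. AlamarBlue then added for 24 h; viability read as fluorescence (Ex 525, Em 598 nm).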

[6] = Solubility at pH 7.4; format: physicochemical

Row | Structure (SMILES) | Microsomal Stability (rat) T1/2 [1] [min] | mTOR [2] | EC50 [3] [nM] | PAMPA Permeability [4] [×10⁻⁶ cm/s] | EC50 [5] [nM] | Sol @ pH 7.4 [6] [ug/mL]
1 | O=C(c1ccc(-n2c(=O)ccc3cnc4ccc(-c5ccc(Cl)cc5)cc4c32)cc1Cl)N1CCOCC1 [Compound 116] | <1.0 | 0.4546 µM | 22 | 383 | 65 | <1.0
2 | N#Cc1ccc(-c2ccc3ncc4ccc(=O)n(-c5ccc(C(=O)N6CCOCC6)cc5)c4c3c2)cc1 [Compound 170] | 13.3 | 3.773 µM | 122 | 591 | 168 | 2.7
3 | O=C(NC1CCCCCC1)c1ccc(-n2c(=O)ccc3cnc4ccc(-c5ccc(Cl)cc5)cc4c32)cc1 [Compound 157] | 6.8 | 50 µM | 3350 | < 1 | 7430 | <1.0
4 | Cc1ccc(-c2ccc3ncc4c(c3c2)n(-c2cccc(C#N)c2)c(=O)n4C)cc1 [Compound 438] | 27.2 | 100 µM | 174 | < 1 | 169 | <1.0
5 | CN(C)Cc1ccc(-c2ccc3ncc4ccc(=O)n(-c5ccc(C(=O)N6CCOCC6)cc5)c4c3c2)cc1 [Compound 86] | >30.0 | 3.776 µM | 177 | 459 | 212 | 61.6
6 | NC1(c2ccc(-c3ccc4ncc5ccc(=O)n(-c6ccc(C(=O)N7CCOCC7)cc6)c5c4c3)cc2)CCC1 [Compound 181] | >30 | 0.8304 µM | 1580 | 36.3 | 1920 | 17.3
7 | CNC(=O)c1ccc(-n2c(=O)ccc3cnc4ccc(-c5ccc(Cl)cc5)cc4c32)cc1Cl [Compound 115] | 9 | 0.2294 µM | 8.14 | < 1 | 6.21 | <1.0
8 | O=C(NC1CC1)c1ccc(-n2c(=O)ccc3cnc4ccc(-c5ccc(Cl)cc5)cc4c32)cc1 [Compound 87] | >30.0 | 0.2411 µM | 24.4 | 33.1 | 139 | 2.6
9 | CN1CCN(C(=O)c2ccc(-n3c(=O)ccc4cnc5ccc(-c6ccc(Cl)cc6)cc5c43)cc2)CC1 [Compound 102] | 5 | 5.191 µM | 186 | 1080 | 116 | 7.5
10 | CN1CC2CN(C(=O)c3ccc(-n4c(=O)ccc5cnc6ccc(-c7ccc(Cl)cc7)cc6c54)cc3)CC2C1 (stereo not drawn) [Compound 141] | 4.2 | 8.043 µM | 47.5 | 1500 | 260 | 66.5
11 | Cn1c(=O)n(-c2cccc(C#N)c2)c2c3cc(-c4ccc(F)cc4)ccc3ncc21 [Compound 402] | >30.0 | 53.21 µM | 140 | 223 | 343 | 1.9
12 | N#Cc1cc(NC(=O)c2ccc(-n3c(=O)ccc4cnc5ccc(-c6ccc(Cl)cc6)cc5c43)cc2)ccc1F [Compound 133] | >30.0 | inactive | 4000 | < 5.4 | 10100 | <1.0
13 | O=C(NC1CC1c1ccccc1)c1ccc(-n2c(=O)ccc3cnc4ccc(-c5ccc(Cl)cc5)cc4c32)cc1 (stereo not drawn) [Compound 158] | 18.8 | 7.899 µM | 1560 | < 2.4 | 3560 | <1.0
14 | O=C(c1ccc(-n2c(=O)ccc3cnc4ccc(-c5ccc(Cl)cc5)cc4c32)cc1)N1CCNCC1 [Compound 103] | 10.5 | 2.997 µM | 74.3 | 76.1 | 71.3 | 6.3
15 | CN(C)Cc1ccc(-c2ccc3ncc4ccc(=O)n(-c5ccc(C(=O)N(C)C)cc5)c4c3c2)cc1 [Compound 166] | >30.0 | 8.762 µM | 72.7 | 427 | 179 | >70.0
16 | N#Cc1cccc(-n2c(=O)n(CCO)c3cnc4ccc(-c5ccc(Cl)cc5)cc4c32)c1 [Compound 404] | >30.0 | 50 µM | 681 | 19.5 | 1640 | 0.9
17 | O=C(O)c1cccc(-c2ccc3ncc4ccc(=O)n(-c5ccc(C(=O)N6CCOCC6)cc5)c4c3c2)c1 [Compound 131] | >30.0 | 1.557 µM | 17500 | 1.9 | 17400 | >75.0
18 | O=C(c1ccc(-n2c(=O)ccc3cnc4ccc(-c5ccc(CN6CCCC6)cc5)cc4c32)cc1)N1CCOCC1 [Compound 184] | >30 | 18.05 µM | 171 | 292 | 821 | 56.1
19 | CN(C)C(=O)c1cccc(-n2c(=O)ccc3cnc4ccc(-c5ccc(N)nc5)cc4c32)c1 [Compound 332] | >30.0 | 0.4949 µM | 859 | 31.9 | 1520 | >64.0
20 | CN(C)Cc1ccc(-c2ccc3ncc4ccc(=O)n(-c5ccc(C(=O)N6CCNCC6)cc5)c4c3c2)cc1 [Compound 167] | >30.0 | 22.69 µM | 223 | 1.5 | 469 | >76.0
21 | O=C(c1ccc(-n2c(=O)ccc3cnc4ccc(-c5ccc(CN6CCOCC6)cc5)cc4c32)cc1)N1CCOCC1 [Compound 185] | 15.1 | 50 µM | 352 | 35.5 | 1140 | 3.4
22 | O=Cc1ccc(-c2ccc3ncc4ccc(=O)n(-c5ccc(C(=O)N6CCOCC6)cc5)c4c3c2)cn1 [Compound 171] | 2.8 | 0.1543 µM | 47.5 | 31.3 | 240 | >72.0
23 | O=C(c1ccc(-n2c(=O)ccc3cnc4ccc(-c5ccc(Cl)c(C(=O)N6CCOCC6)c5)cc4c32)cc1)N1CCOCC1 [Compound 147] | 3.1 | 21.22 µM | 4810 | 109 | 18300 | >90.0
24 | CN(C)Cc1ccc(-c2ccc3ncc4ccc(=O)n(-c5ccc(C(=O)N(CCO)CCO)cc5)c4c3c2)cc1 [Compound 160] | >30.0 | 9.278 µM | 96.1 | < 1 | 270 | >79.0
25 | NC(=O)c1ccc(-n2c(=O)ccc3cnc4ccc(-c5ccc(N)nc5)cc4c32)cc1 [Compound 336] | >30.0 | 0.01971 µM | 10.2 | < 3.6 | 41 | <1.0
26 | O=C(c1ccc(-n2c(=O)ccc3cnc4ccc(-c5ccc(Cl)cc5)cc4c32)cc1)N1CC2CCC(C1)O2 [Compound 138] | 4.8 | 1.278 µM | 173 | 891 | 277 | <1.0
27 | O=C(NC1CCCC1)c1ccc(-n2c(=O)ccc3cnc4ccc(-c5ccc(Cl)cc5)cc4c32)cc1 [Compound 156] | 5.6 | 67.63 µM | 687 | < 1 | 1580 | <1.0
28 | O=C(c1ccc(-n2c(=O)ccc3cnc4ccc(-c5ccc(Cl)cc5)cc4c32)cc1)N1CCCC1 [Compound 106] | 2.1 | 1.735 µM | 64 | 621 | 126 | <1.0
29 | COc1cc(-c2ccc3ncc4ccc(=O)n(-c5ccc(C(=O)N6CCOCC6)cc5)c4c3c2)ccc1Cl [Compound 145] | 4.9 | 1.214 µM | 60.6 | 363 | 266 | <1.0
30 | O=C(c1ccc(-n2c(=O)ccc3cnc4ccc(-c5cccc(O)c5)cc4c32)cc1)N1CCOCC1 [Compound 128] | 12.7 | 0.3106 µM | 6.05 | 735 | 31.4 | 1.5

Source: patent US11753408B2, “Compounds and method for blocking transmission of malarial parasite” (The United States of America, as represented by the …, priority 2016, dated 2023)
